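Test compounds were applied to cells in 96-well plates for 48 hours at 5 doses. GI50 marks 50% less growth.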 Active and inactive are the calls of the source. Cut-off read from the data, not from the text of the source: active = GI50 up to about 1.1 µM and inactive = higher.
What was measured:
Experiment in all cases: NCI anticancer screen, dose series, 48 h
EKVX = system: EKVX
A498 = system: A498
CAKI-1 = system: CAKI-1
UO-31 = system: UO-31
SF-539 = system: SF-539
Hs-578T = system: Hs-578T
HT-29 = system: HT-29
HOP-62 = system: HOP-62
SF-268 = system: SF-268
T47D = system: T47D
UACC-257 = system: UACC-257
PC-3 = system: PC-3
SK-MEL-28 = system: SK-MEL-28
SK-MEL-5 = system: SK-MEL-5
RPMI-8226 = system: RPMI-8226
Malme-3M = system: Malme-3M
LOX IMVI = system: LOX IMVI
DU-145 = system: DU-145
HCC 2998 = system: HCC 2998
SN12C = system: SN12C

Row | Structure (SMILES) | GI50 (EKVX) | GI50 (A498) | GI50 (CAKI-1) | GI50 (UO-31) | GI50 (SF-539) | GI50 (Hs-578T) | GI50 (HT-29) | GI50 (HOP-62) | GI50 (SF-268) | GI50 (T47D) | GI50 (UACC-257) | GI50 (PC-3) | GI50 (SK-MEL-28) | GI50 (SK-MEL-5) | GI50 (RPMI-8226) | GI50 (Malme-3M) | GI50 (LOX IMVI) | GI50 (DU-145) | GI50 (HCC 2998) | GI50 (SN12C)
1 | Cc1ccc2ccccc2c1CSc1nc(N)nc2c1ncn2CC(C)C | 13.6 µM (inactive) | 26.9 µM (inactive) | 17 µM (inactive) | 2.79 µM (inactive) | 7.78 µM (inactive) | > 35.2 µM (inactive) | 9.14 µM (inactive) | 28.9 µM (inactive) | 45.8 µM (inactive) | 5.05 µM (inactive) | 11.7 µM (inactive) | 13.9 µM (inactive) | 55.8 µM (inactive) | 7.05 µM (inactive) | 5.65 µM (inactive) | 9.31 µM (inactive) | 34.8 µM (inactive) | 82.4 µM (inactive) | 19.3 µM (inactive) | 40 µM (inactive)
2 | CC[C@@]1(O)C(=O)OCc2c1cc1n(c2=O)Cc2cc3c(NC(=O)CN)cccc3nc2-1 | 16.6 µM (inactive) | 0.481 µM (active) | < 0.01 µM (active) | 0.191 µM (active) | < 0.0241 µM (active) | > 36.2 µM (inactive) | 2.69 µM (inactive) | 0.109 µM (active) | < 0.024 µM (active) | < 0.0236 µM (active) | 1.43 µM (inactive) | 4.92 µM (inactive) | 7.05 µM (inactive) | 0.407 µM (active) | 1.88 µM (inactive) | 1.41 µM (inactive) | 0.0575 µM (active) | 0.065 µM (active) | 1.96 µM (inactive) | < 0.0115 µM (active)
3 | CN(C)c1ccc(/C=C/c2cc[n+](C)c3ccccc23)cc1 | 34.7 µM (inactive) | 15.1 µM (inactive) | 2.79 µM (inactive) | 23.8 µM (inactive) | 5.56 µM (inactive) | 2.74 µM (inactive) | 2.04 µM (inactive) | 4.63 µM (inactive) | 6.1 µM (inactive) | 0.652 µM (active) | 1.2 µM (inactive) | 1.73 µM (inactive) | 5.32 µM (inactive) | 2.19 µM (inactive) | 2.95 µM (inactive) | 4.51 µM (inactive) | 3.48 µM (inactive) | 5.6 µM (inactive) | 6.32 µM (inactive) | 3.44 µM (inactive)
4 | CC1(C)CCCCCCCCCC(C)(CCCCCCCCCCCCO)C1=O (stereo not given) | 19.3 µM (inactive) | 18.7 µM (inactive) | 20.7 µM (inactive) | 18 µM (inactive) | 16.6 µM (inactive) | 19.7 µM (inactive) | 16.9 µM (inactive) | 22.5 µM (inactive) | 17.3 µM (inactive) | 16.8 µM (inactive) | 16.2 µM (inactive) | 17.4 µM (inactive) | 18.2 µM (inactive) | 19.5 µM (inactive) | 18.7 µM (inactive) | 16.4 µM (inactive) | 17.6 µM (inactive) | 17.7 µM (inactive) | 0.655 µM (active) | 17.4 µM (inactive)
5 | CCC(c1ccccc1)c1cc(C(C)(C)C)cc(C(C)(C)C)c1O (stereo not given) | 17.8 µM (inactive) | 19.7 µM (inactive) | 16.2 µM (inactive) | 18.4 µM (inactive) | 17.4 µM (inactive) | 16.3 µM (inactive) | 14.9 µM (inactive) | 16.2 µM (inactive) | 15.3 µM (inactive) | 16.1 µM (inactive) | 15.2 µM (inactive) | 17.7 µM (inactive) | 18.3 µM (inactive) | 18.1 µM (inactive) | 13.6 µM (inactive) | 13.9 µM (inactive) | 18 µM (inactive) | 19.1 µM (inactive) | 15.8 µM (inactive) | 17.3 µM (inactive)
6 | COc1ccc(/C=C(\C(=C/c2ccc(OC)cc2)[N+](=O)[O-])[N+](=O)[O-])cc1 | 8.71 µM (inactive) | 30.3 µM (inactive) | 3.18 µM (inactive) | 4.53 µM (inactive) | 2.24 µM (inactive) | 4.18 µM (inactive) | 3.39 µM (inactive) | 5.47 µM (inactive) | 4.09 µM (inactive) | 8.83 µM (inactive) | 5.22 µM (inactive) | 5.85 µM (inactive) | 2.31 µM (inactive) | 4.07 µM (inactive) | 3.15 µM (inactive) | 3.34 µM (inactive) | 2.05 µM (inactive) | 12.1 µM (inactive) | 15.5 µM (inactive) | 2.88 µM (inactive)
7 | COCn1cnc2c(=O)n(-c3ccc(C)cc3)c(=S)n(-c3ccc(C)cc3)c21 | > 100 µM (inactive) | > 100 µM (inactive) | > 100 µM (inactive) | 38.6 µM (inactive) | > 100 µM (inactive) | > 100 µM (inactive) | > 100 µM (inactive) | > 100 µM (inactive) | > 100 µM (inactive) | > 100 µM (inactive) | > 100 µM (inactive) | > 100 µM (inactive) | > 100 µM (inactive) | > 100 µM (inactive) | > 100 µM (inactive) | > 100 µM (inactive) | > 100 µM (inactive) | > 100 µM (inactive) | > 100 µM (inactive) | > 100 µM (inactive)
8 | CCN1CN(c2ccccc2)C2(CCN(CC(CC3OCCO3)c3ccc(F)cc3)CC2)C1=O (stereo not given) | 6.7 µM (inactive) | 3.63 µM (inactive) | 3.18 µM (inactive) | 26.2 µM (inactive) | 9.53 µM (inactive) | 29.9 µM (inactive) | 1.34 µM (inactive) | 4.23 µM (inactive) | 5.19 µM (inactive) | 5.13 µM (inactive) | 2.79 µM (inactive) | 22.6 µM (inactive) | 19.9 µM (inactive) | 4.07 µM (inactive) | 10.4 µM (inactive) | 19.7 µM (inactive) | 7.43 µM (inactive) | 4.2 µM (inactive) | 9.93 µM (inactive) | 14.3 µM (inactive)
9 | CCOC(=O)C1=NN(c2ccc([N+](=O)[O-])cc2)[C@@]2(C)C[C@]3(c4ccccc4)N(c4ccc([N+](=O)[O-])cc4)N=C(C(=O)OCC)N3c3ccccc3N12 | > 100 µM (inactive) | > 100 µM (inactive) | > 100 µM (inactive) | > 100 µM (inactive) | > 100 µM (inactive) | > 100 µM (inactive) | > 100 µM (inactive) | > 100 µM (inactive) | > 100 µM (inactive) | > 100 µM (inactive) | > 100 µM (inactive) | > 100 µM (inactive) | > 100 µM (inactive) | > 100 µM (inactive) | > 100 µM (inactive) | > 100 µM (inactive) | > 100 µM (inactive) | > 100 µM (inactive) | > 100 µM (inactive) | > 100 µM (inactive)
10 | O=C1CCCC1C(O)(C(F)(F)F)C(F)(F)F (stereo not given) | > 100 µM (inactive) | > 100 µM (inactive) | > 100 µM (inactive) | > 100 µM (inactive) | > 100 µM (inactive) | > 100 µM (inactive) | > 100 µM (inactive) | > 100 µM (inactive) | > 100 µM (inactive) | > 100 µM (inactive) | > 100 µM (inactive) | > 100 µM (inactive) | > 100 µM (inactive) | > 100 µM (inactive) | > 100 µM (inactive) | > 100 µM (inactive) | > 100 µM (inactive) | > 100 µM (inactive) | > 100 µM (inactive) | > 100 µM (inactive)
11 | COC1=CC(=O)c2c(O)c3c(c(O)c2C1=O)CC(C)(O)OC3 (stereo not given) [FUSARUBIN] | 5.32 µM (inactive) | 9.66 µM (inactive) | 3.73 µM (inactive) | 3.97 µM (inactive) | 3.33 µM (inactive) | 2.38 µM (inactive) | 2.12 µM (inactive) | 3.19 µM (inactive) | 3.85 µM (inactive) | 2.05 µM (inactive) | 2.02 µM (inactive) | 2.52 µM (inactive) | 6.11 µM (inactive) | 1.16 µM (inactive) | 6.37 µM (inactive) | 0.653 µM (active) | 2.59 µM (inactive) | 3.97 µM (inactive) | 2.99 µM (inactive) | 3.61 µM (inactive)

Reference: ChEMBL document CHEMBL1201862, “PubChem BioAssay data set” (2004)
